Measurements published in patent US7744909B2, “Dispersions for the formulation of slightly or poorly soluble agents” (Abbott GmbH & Co., KG, priority 2000, dated 2010).
In brackets after ≈: the same amount, converted by molar mass.

What was measured:
[1] = Solubility of Amphotericin B in water; assay type: physicochemical; settings: for solubility: water
Protocol: Thus the solubility of Amphotericin B in water is less than 0.001% (<0.01 mg/ml) at pH 6-7, i.e. the pH value of the emulsion. It is true that the solubility of Amphotericin is higher with pH 2 and pH 11 (0.1 mg/ml), however these solutions cannot be administered intravenously.
(§1) The dispersions contains the active ingredient dissolved in an amount, which is greater than that amount which is the result of the mathematical addition of its maximal solubility in each of the water phase and the oil phase of the emulsion, which “addition amount” is determined under standard conditions (20° C., standard pressure) by dissolving the maximal amount of active ingredient in the separate oil and aqueous phases (maintaining the other dissolution conditions identical) corresponding to the proportions in the dispersion (saturation concentrations).

[2] = Additive solubility in oil and water phase versus quantity dissolved in the emulsion; assay type: physicochemical
Protocol: Preferably, the quantity of active ingredient dissolved is greater than the additive quantity by a factor of 2, more preferably 5, still more preferably 10 or even greater. The “additive quantity” is determined by dissolving the maximum possible quantity of active ingredient in the separate oily and aqueous phases (dissolving conditions being otherwise identical) corresponding to the constituents in the dispersion (saturation concentration), no further additional organic solvents being used. The dispersion according to the invention contains, in addition to the additive quantity, a superadditive quantity of dissolved active ingredient.
40 g emulsion from Example 1 consist 20% of oil (8 g) and ca. 80% of water (32 g). Thus on the basis of these solubilities, 8×0.0001 mg/ml plus 32×0.01 mg/ml, i.e. in total 0.3208 mg Amphotericin can be dissolved in 40 g emulsion components oil and water (i.e. approx. 0.008 mg/ml emulsion). In the present emulsion according to the invention 0.2 mg/ml emulsion could be incorporated (Example 1) without microscopic crystals of undissolved drug being detectable (Example 12).
Dissolved active ingredient is rapidly available. […] The solubility in water and oil phase amounts to, for example, 0.008 mg/ml in the case of Amphotericin B, the emulsion according to the invention dissolves without detectable crystals e.g. 0.2 mg/ml (Example 1). If 5 mg/ml dispersion is incorporated, the solubility is exceeded (supersaturated system).
as §1

[3] = Solubility of Amphotericin in standard oils (soya oil, Miglyol 812); assay type: physicochemical; settings: oil or lipid
Protocol: The solubility of Amphotericin in soya oil (Long-chain Triglycerides—LCT) and in Miglyol 812 (Medium-chain Triglycerides—MCT), the standard oils for most commercially available emulsions for parenteral infusion is less than 0.0001 mg/ml.
as §1

[4] = oral administration; cited from earlier work

solubility in water ([1]; pH 6-7, the pH value of the emulsion): less than 0.001% | solubility ([1]; pH 2, aqueous buffer, read-out: solubility): 100 µg/mL (≈ 108 µM) | solubility ([1]; pH 11, aqueous buffer, read-out: solubility): 100 µg/mL (≈ 108 µM) | solubility ([1]; pH 6-7, the pH value of the emulsion, read-out: solubility in water): < 10 µg/mL | quantity that can be dissolved in 40 g emulsion components oil and water ([2]; 8 g oil plus 32 g water, calculated from the separate solubilities): 0.3208 mg | solubility ([2]; 20 °C, oil or lipid, per ml emulsion, calculated from the separate solubilities): ~8 µg/mL (≈ 8.66 µM) | quantity dissolved in the emulsion without detectable crystals ([2]; emulsion according to the invention (Example 1), Lipofundin N 20%): 0.2 mg/mL | solubility in water and oil phase (additive quantity) ([2]; per ml emulsion, calculated from the separate solubilities): 8 µg/mL (≈ 8.66 µM) | solubility ([3]; Miglyol 812 (medium-chain triglycerides, MCT), read-out: solubility in Miglyol 812 (Medium-chain Triglycerides, MCT)): < 0.1 µg/mL | solubility ([3]; soya oil (long-chain triglycerides, LCT), read-out: solubility in soya oil (Long-chain Triglycerides, LCT)): < 0.1 µg/mL
SMILES: C[C@@H]1[C@H](O)[C@@H](C)/C=C/C=C/C=C/C=C/C=C/C=C/C=C/[C@H](O[C@@H]2O[C@H](C)[C@@H](O)[C@H](N)[C@@H]2O)C[C@@H]2O[C@](O)(C[C@@H](O)C[C@@H](O)[C@H](O)CC[C@@H](O)C[C@@H](O)CC(=O)O[C@H]1C)C[C@H](O)[C@H]2C(=O)O [Amphotericin B]
bioavailability [4]: almost zero
